{"source": "patent US10285985B2", "about": "“Pharmaceutical composition for treatment or prevention of neurodegenerative diseases” (NATIONAL UNIVERSITY CORPORATION OKAYAMA UNIVERSITY, priority 2015, dated 2019)", "key": {"[1]": {"test_system": "Parkinson's disease model rats", "experiment": "Apomorphine-induced rotation in Parkinson's disease model rats (6-OHDA)", "format": "in vivo, SD rat", "conditions": "individual rats, Day 12, 0.015% w/w in feed, apomorphine 1 mg/kg i.p., 3 minutes", "method": "A 8-week old male SD rat under isoflurane anesthesia was skin-incised on the head and then a connective tissue was dissected and removed. Then, the tissue was fixed on a brain stereotactic fixture, bregma and lambda coordinates were measured, a microinjection cannula was inserted at four points of administration coordinates AP (+1.3, +0.4, −0.4, −1.3 mm) and DV (−5.0 mm) at the depth of 5.0 mm from the brain surface, and 2 μL of a 3.5 mg/mL solution of 6-OHDA (6-hydroxydopamine) in a saline with 0.02% ascorbic acid as a solvent was infused at a rate of 1 μL/min. Similar surgical procedure was conducted for a sham group and saline with ascorbic acid alone was infused. Five minutes after infusion, the glass pipette was kept to be inserted for diffusing the solution. […] A rat with Parkinson's disease rotates to the left after apomorphine administration. An individual which rotated seven or more times in one minute after the initiation of the rotation was used as a Parkinson's disease model.\nThe rats were allowed to freely access to MF feed containing a 0.015% w/w RXR partial agonist. After 6 and 12 days, to the animal was intraperitoneally administered a 1 mg/mL solution of apomorphine in saline at 1 mg/kg, and the rotatory movement number for 3 minutes immediately after the administration was recorded."}, "[2]": {"experiment": "Brain-migration ability: plasma and cerebral concentration by HPLC", "format": "in vivo, male ICR mice", "conditions": "for concentration at 1 h: mouse, one hour after 30 mg/kg single-dose administration, male ICR mice, ave ± SEM", "method": "A compound was administered at a dose of 30 mg/kg mouse body weight. A compound to be administered was prepared by dissolving it in a 1% final concentration of ethanol and suspending the solution in a 0.5% carboxymethyl cellulose (CMC) solution. Animals subjected to administration were male ICR mice (6 week old), and they were fasted from 17 o'clock the day before.\nThe collected blood was put in a heparinized tube, mixed with inversion and then centrifuged (600 g) for 5 minutes to obtain plasma. To 100 μL of the plasma were added 100 μL of an ammonium acetate buffer solution and 1 mL of ethyl acetate, and the mixture was stirred by a vortex mixer for 30 seconds and then left at room temperature for 10 minutes. Then, the mixture was centrifuged 30 seconds and 800 μL of the supernatant was concentrated by a centrifugal evaporator. To the concentrate was added 100 μL of an HPLC eluent to prepare an HPLC sample.\nUnder ether anesthesia, the brain was removed from a mouse after administrating a drug, and about 100 mg of the brain was weighed into a 2 mL Eppendorf tube. After adding 1000 μL of methanol per 100 mg of the brain, the mixture was homogenized. After the homogenization, the homogenate was centrifuged at 10,000 g at 10 to 15° C. for 10 minutes. Then, in a separate 1.5 mL Eppendorf tube, 700 μL of the supernatant […] was dispensed and concentrated to dryness by a centrifugal evaporator. To the concentrate was added 70 μL of the HPLC eluent, to give a solution (10× concentrate).\nA 30 μM solution of the drug in methanol was prepared and diluted with the HPLC eluent (5 mM AcONH4, pH5, MeOH) to 10, 3, 1 and 0.3 μM. Using these, a calibration curve was formed. The plasma and the […] samples were subjected to measurement and a measured value was converted to a concentration."}, "[3]": {"test_system": "multiple sclerosis model mice (EAE mice)", "experiment": "Multiple sclerosis model mice (EAE mice), clinical score", "format": "in vivo, C57BL6/J mice", "conditions": "0.015 w/w % in feed, vs vehicle group, FIG. 8"}, "[4]": {"test_system": "senescence-accelerated mouse (SAMP8)", "experiment": "Blood data and organ weight in senescence-accelerated mouse (SAMP8) after 9 weeks of drug feed", "format": "in vivo", "conditions": "drug feed for 9 weeks, FIG. 7B, C", "method": "After MRI imaging, the mice used in the above test were subjected to blood collection and then dissected, and blood data and the weight of each organ were recorded. Autopsy was conducted for the mice fed with MF feed containing a drug for 9 weeks. The animals were not fasted the day before the autopsy."}, "[5]": {"test_system": "senescence-accelerated mouse (SAMP8)", "experiment": "Y-maze test in senescence-accelerated mouse (SAMP8)", "format": "in vivo", "conditions": "SAMP8 mice, 0.015% in feed; FIG. 5A", "quoted_text": "In this test, the mice used in the step-through test were used as they were.\nAfter the step-through test, a Y-maze for a mouse (arm length: 40 cm) was used and mice were allowed to freely move for 8 minutes. In a Y-shaped system, a near-side arm, a left-back arm and a right-back arm are A, B, and C, respectively, and the number of entry into each arm was recorded (here, “entry” is defined that both hind paws of a mouse enter an arm, and entry of forepaws only is defined as “not enter”). This is called as a Y-maze."}, "[6]": {"conditions": "mice, oral 30 mg/kg/day for one week; cited from earlier work"}}, "note": "Where “and” joins values, the source holds several entries; their conditions need not be identical. Equal entries are not always repeated. Where two headings read alike, the source gives them in different places."}
{"smiles": "CN1CCc2cccc3c2[C@H]1Cc1ccc(O)c(O)c1-3", "note": "[Apomorphine, apomorphine]", "values": [{"measurement": "rotatory movement number, Left", "setting": "[1]", "result": "11 and 19 and 9 and 4 and 16"}, {"measurement": "rotatory movement number, Right", "setting": "[1]", "result": 0}]}
{"smiles": "Cc1cc2c(cc1-n1nnc3cc(C(=O)O)ccc31)C(C)(C)CCC2(C)C", "note": "[CBt-PMN]", "values": [{"measurement": "migration to the brain compared with bexarotene", "setting": "[2]; 30 mg/kg, mice, one hour", "result": "migrates more smoothly to the brain than bexarotene"}, {"measurement": "concentration at 1 h", "setting": "[2]; brain, read-out: Brain concentration", "result": "11.4 ± 3.7", "unit": "µM"}, {"measurement": "concentration at 1 h", "setting": "[2]; plasma, read-out: Plasma concentration", "result": "15.8 ± 6", "unit": "µM"}]}
{"smiles": "C=C(c1ccc(C(=O)O)cc1)c1cc2c(cc1C)C(C)(C)CCC2(C)C", "note": "[bexarotene]", "values": [{"measurement": "clinical score / amelioration of pathological model", "setting": "[3]", "result": "did not ameliorate"}, {"measurement": "blood triglyceride", "setting": "[4]; SAMP8 mice", "result": "increase"}, {"measurement": "enlargement of the liver", "setting": "[4]; SAMP8 mice", "result": "observed"}, {"measurement": "blood triglyceride", "setting": "[4]; SAMR1 mice", "result": "increase"}, {"measurement": "enlargement of the liver", "setting": "[4]; SAMR1 mice", "result": "observed"}, {"measurement": "effect on SAMP8 hyperactivity (number of entry in the Y-maze arm)", "setting": "[5]", "result": "no effects"}]}
{"smiles": "CCN(c1ccc(OCC(C)C)c(C(C)C)c1)c1ccc(C(=O)O)cn1", "note": "[NEt-4IB]", "values": [{"measurement": "rotatory movement number, Left", "setting": "[1]; listed as NEt-41B", "result": "53 and 18 and 6 and 0 and 32"}, {"measurement": "rotatory movement number, Right", "setting": "[1]; listed as NEt-41B", "result": "0 (4×) and 75"}, {"measurement": "liver weight vs vehicle group", "setting": "[6]", "result": "not a difference"}, {"measurement": "tendency to weight gain (body weight change over a week)", "setting": "[6]", "result": "not observed"}, {"measurement": "triglyceride level vs vehicle group", "setting": "[6]", "result": "not a difference"}]}
